Measurements reported in US9833520B2, “Labeled, non-peptidic, multivalent integrin antagonist compounds; methods for synthesis and uses thereof” (The Methodist Hospital Research Institute, priority 2011, dated 2017).
“And” between values parts separate entries of the source, which are not always exact repeats. Identical values can stand only once. “Also recorded” adds a separate entry of the source.

Legend:
HUVECs [1] = assay: In vitro cytotoxicity (MTT) assay, HUVECs; type: cell-based, human; details: 1 μg/mL to 100 μg/mL, 24 hr
Experimental: For cell cytotoxicity assay, the cells were then seeded into 96-well flat-bottomed tissue-culture plates at 1×10^4 cells/well and incubated for 24 hr in humidified atmosphere of 5% (vol./vol.) CO2 at 37° C. in the presence of each compound. The multivalent compound (monomer, dimer, and trimer) sample solutions were diluted with culture medium (1% FBS added) to obtain concentrations in the range of 0.1-100 μg/mL for each compound. The cytotoxic effects of monomer, dimer and trimer compounds were evaluated by adding 100 μL of each sample in 100 μL culture medium to each well. After 24-hrs' incubation, cell viability was evaluated by mitochondrial conversion of 3-(4,5-dimethylthiazol-2-yl)-2,5-diphenyl tetrazolium bromide (MTT assay) (Allison et al., 1985).

HUVECs [2] = assay: Anti-angiogenic in vitro assay: endothelial tube formation on Matrigel; type: cell-based, human; details: 10 μg/mL, 6 hr
Experimental: The impact of IA derivatives on capillary-like tube formation by HUVECs was investigated. In vitro endothelial tube formation was performed as described in the literature (Park et al., 2007). Growth factor reduced Matrigel® (100 μL, BD Bioscience, San Jose, Calif., USA) was added to each well of a 96-well plate and allowed to polymerize for 30 min at 37° C. HUVECs were suspended in medium at the density of 4×10^5 cells per milliliter, and 100 μL of the cell suspension was added to each Matrigel-coated well in the presence of IA monomer, dimer and trimer. Cells were incubated at 37° C. for 6 hr, and then photographed at 20× magnification using a Micromaster® phase contrast microscope (Fisher Scientific, Pittsburgh, Pa., USA). The branch points were counted and averaged.

B16F10 melanoma tumor = assay: In vivo antitumor efficacy in B16F10 melanoma tumor-bearing mice; details: for average tumor volume / tumor volume against control group (PBS = 100%): 14 days; for tumor volume against control group (PBS = 100%): 30 mg/kg i.p. every 12 hours; for reduction in tumor mass compared to control: 30 mg/kg, endpoint
Experimental: All animal procedures were approved by appropriate Animal Care and Use Committee. The therapeutic test for antitumor efficacy of IA multivalent compounds was evaluated using tumor-bearing mice, which were prepared by bilateral subcutaneous injection in the thighs of nu/nu female mice (6 weeks old; 20-25 g). The mouse melanoma cancer cell line B16F10 was obtained from Caliper and tested negative for rodent pathogens. The cells were maintained in vitro as described above. The mice were inoculated with suspensions of 1×10^6 B16F10 cells in 100 μL complete medium (10% FBS added). Three days after subcutaneous inoculation (the tumor diameter was approximately 3-5 mm, the tumor volume was approximately 50 to 100 mm^3), tumor-bearing mice (n=7 per group) were injected intraperitoneally (i.p.) with each IA compound (monomer, dimer, or trimer) in PBS or PBS alone for control group. All compounds were serially diluted with PBS, and were given 2 times per day (every 12 hr) at a dose of 100 μL of 7.5, 15, 30 mg/kg per injection for 14 days. […] This study design was deliberately chosen to highlight the effect of multivalency. The tumor size was calculated as a×b^2/2, where ‘a’ is the largest and ‘b’ the smallest diameter. In addition, the weight of the mice and the tumors were recorded after harvesting.
A tumor growth model was used to isolate and interpret the effects of pharmacological dose (pharmacophore) and multivalency. This was done using the R software package ‘geepack’ (Højsgaard et al., 2006; Team et al., 2012). The tumor burden (sum of the volumes of left and right tumors) for each animal was first normalized by dividing by the starting volume on the first day of treatment, then taking the logarithm to linearize the data. The pharmacological dose was decoupled from the molecular valency, N, for this model by defining the pharmacophore or pharmacological dose (PD) as PD=N×MD, where MD is the molar dose. The pharmacological excess (compared to monomer) dose (ED) due to multivalency is then: ED=PD-MD=MD×(N−1). The data was fit to a linear model:
All animal procedures were approved by the appropriate regulatory agencies. The therapeutic test for antitumor efficacy of IA multivalent compounds was evaluated using tumor-bearing mice that were prepared by the subcutaneous injection in the dorsa of nu/nu female mice (6 weeks old; 20-25 g). The mouse melanoma cancer cell line B16F10 was obtained from Caliper, and tested negative for rodent pathogens. The cells were maintained in vitro as described above. Mice were inoculated with a suspension of 1×10^6 B16F10 cells in 100 μL complete medium (10% FBS added). Four days after subcutaneous inoculation (the tumor diameter was approximately […], the tumor volume was approximately 50 to 100 mm^3), tumor-bearing mice (n=7 per group) were inoculated intraperitoneally (i.p.) with each IA compound (Monomer, Dimer, Trimer) in PBS or PBS alone for control group. All compounds were serially diluted with PBS and were given 2 times per day (every 12 hr) so that compounds doses would be 100 μL of 7.5, 15, 30 mg/kg (maximum tolerated dose) for 14 days. The tumor size was calculated as: a×b2/2, where a is the largest and b the smallest diameter.

[3] = tested on: U-87 MG (ATCC HTB-14) glioblastoma cells over-expressing integrin αvβ3; assay: Fluorescence microscopy probe binding assay in U-87 cells; type: cell-based, human; details: blocking dose 20 μmol/L
Experimental: Fluorescence Microscopy Studies. […] For fluorescence microscopy studies, 1×10^4 U-87 cells were cultured on 35 mm MatTek glass bottom culture dishes. After 24 hr, cells were washed with PBS and then incubated with bivalent-IA-Cy5.5 (200 nM) at 37° C. for 45 min. Integrin specificity of the probe binding was verified by incubating U-87 cells with and without a blocking dose of the non-fluorescent bivalent IA (20 μmol/L). After the incubation period, the cells were washed three times with ice-cold PBS. The fluorescence signal of the cells was recorded using FluoView® 1000 Laser Scanning Confocal Microscope (Olympus, Center Valley, Pa., USA) under a 40× oil-immersion objective, with laser excitation at 675 nm (Cy5.5). A differential interference contrast image was also recorded so that the origin of fluorescent signals could be confirmed.

SMILES	cytotoxicity on HUVEC cells (HUVECs [1])	number of tube branches (control group 100%) (HUVECs [2]) [%]	average tumor volume (B16F10 melanoma tumor; 15 mg/kg i.p. twice per day) [mm^3]	average tumor volume as fraction of PBS-treated control mice (B16F10 melanoma tumor; 15 mg/kg, 14 days after start of treatment)	tumor volume against control group (PBS = 100%) (B16F10 melanoma tumor) [%]	average tumor volume (B16F10 melanoma tumor; 30 mg/kg i.p. twice per day)	reduction in tumor mass compared to control (B16F10 melanoma tumor) [%]	survival (B16F10 melanoma tumor; 7.5, 15, 30 mg/kg twice per day)	average tumor volume (B16F10 melanoma tumor; Example 3, dose not stated) [mm^3]	average tumor size smaller than in the IA-dimer group (B16F10 melanoma tumor; compared to IA-dimer group) [fold]	average tumor size smaller than in the IA-monomer group (B16F10 melanoma tumor; compared to IA-monomer group) [fold]	blocking of bivalent-IA-Cy5.5 binding/endocytosis in U-87 cells [3]	reduction in tumor mass compared to control (B16F10 melanoma tumor; listed as dimer) [%]
O=C(NCCS(=O)(=O)N[C@@H](CNC(=O)c1ccc(OCCNC2=NCCCN2)cc1)C(=O)O)OCCN(CCOC(=O)NCCS(=O)(=O)N[C@@H](CNC(=O)c1ccc(OCCNC2=NCCCN2)cc1)C(=O)O)CCOC(=O)NCCS(=O)(=O)N[C@@H](CNC(=O)c1ccc(OCCNC2=NCCCN2)cc1)C(=O)O [IA trimer]	increased cytotoxicity over the IA-monomer and dimer	35.6±1.0	2000	less than ⅓; also recorded: less than one-third	32.05	1800 (s.d. 800) mm^3 and 1800 mm^3	71±7	all of animals survived for at least 2 weeks	2000	1.7	2.3		
NCCS(=O)(=O)N[C@@H](CNC(=O)c1ccc(OCCNC2=NCCCN2)cc1)C(=O)O [IA, 4-[2-(3,4,5,6-tetrahydropyrimidine-2-ylamino)ethyloxy]benzoyl-2-(S)-aminoethylsulfonyl-amino-β-alanine]		86.6±3.4			59.29	3300 (s.d. 1200) mm^3	36±9		5000				
NC(CCCCCC(=O)NCCS(=O)(=O)N[C@@H](CNC(=O)c1ccc(OCCNC2=NCCCN2)cc1)C(=O)O)C(=O)NCCS(=O)(=O)N[C@@H](CNC(=O)c1ccc(OCCNC2=NCCCN2)cc1)C(=O)O (stereo partly shown) [bivalent IA]		68.3±2.6			45.33	2500 (s.d. 1000) mm^3			3000			complete blockage of endocytosis of the imaging probes; also recorded: effectively blocked	49±8
